Reference: patent US20210045385A1, “PYRIDAZINONE-SUBSTITUTED KETOXIMES AS HERBICIDES” (FMC Corporation, priority 2018, published 2021)

Tests used:
Type in all cases: in vivo
[1] = tested on: Italian ryegrass (Lolium multiflorum); experiment: Test A preemergence, visual plant response rating; details: for Ryegrass, Italian plant response rating: 125 g ai/ha, preemergence, 0 to 100 scale, 0 no effect, 100 complete control; for Ryegrass, Italian plant response rating (0 to 100 scale): 500 g ai/ha Preemergence, approx. 10 days
Method in brief: (§1)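 Preemergence: seeds in loam/sand blend given directed soil spray of compound in non-phytotoxic solvent with surfactant. Postemergence: plants 2–10 cm, one- to two-leaf stage, sprayed with same formulation. Visual injury rated vs untreated controls after ~10 days in greenhouse, 0 (no effect) to 100 (complete control).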

[2] = tested on: barnyardgrass (Echinochloa crus-galli); experiment: Test A preemergence, visual plant response rating; details: for Barnyardgrass plant response rating: 125 g ai/ha, preemergence, 0 to 100 scale, 0 no effect, 100 complete control; for Barnyardgrass plant response rating (0 to 100 scale): 500 g ai/ha Preemergence, approx. 10 days
Method in brief: as §1

[3] = tested on: foxtail, giant (giant foxtail, Setaria faberii); experiment: Test A preemergence, visual plant response rating; details: for Foxtail, Giant plant response rating: 125 g ai/ha, preemergence, 0 to 100 scale, 0 no effect, 100 complete control; for Foxtail, Giant plant response rating (0 to 100 scale): 500 g ai/ha Preemergence, approx. 10 days
Method in brief: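 Greenhouse pot test in loam–sand soil mix: compound in a surfactant-containing non-phytotoxic solvent applied preemergence (directed soil spray) or postemergence (one- to two-leaf plants, 2–10 cm). Injury scored visually after ~10 days, 0–100.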

kochia (Kochia scoparia) [4] = experiment: Test A preemergence, visual plant response rating; details: for Kochia plant response rating: 125 g ai/ha, preemergence, 0 to 100 scale, 0 no effect, 100 complete control; for Kochia plant response rating (0 to 100 scale): 500 g ai/ha Preemergence, approx. 10 days
Method in brief: as §1

[5] = tested on: pigweed (Amaranthus retroflexus); experiment: Test A preemergence, visual plant response rating; details: for Pigweed plant response rating: 125 g ai/ha, preemergence, 0 to 100 scale, 0 no effect, 100 complete control; for Pigweed plant response rating (0 to 100 scale): 500 g ai/ha Preemergence, approx. 10 days
Method in brief: as §1

[6] = tested on: ragweed (common ragweed, Ambrosia elatior); experiment: Test A preemergence, visual plant response rating; details: for Ragweed plant response rating: 125 g ai/ha, preemergence, 0 to 100 scale, 0 no effect, 100 complete control; for Ragweed plant response rating (0 to 100 scale): 500 g ai/ha Preemergence, approx. 10 days
Method in brief: as §1

[7] = tested on: Italian ryegrass (Lolium multiflorum); experiment: Test A postemergence, visual plant response rating; details: for Ryegrass, Italian plant response rating (0 to 100 scale): 500 g ai/ha, postemergence, 0 is no effect, 100 is complete control; for Ryegrass, Italian plant response rating: Postemergence, 125 g ai/ha, 0 to 100 scale (0 no effect, 100 complete control)
Method in brief: as §1

[8] = tested on: barnyardgrass (Echinochloa crus-galli); experiment: Test A postemergence, visual plant response rating; details: for Barnyardgrass plant response rating (0 to 100 scale): 500 g ai/ha, postemergence, 0 is no effect, 100 is complete control; for Barnyardgrass plant response rating: Postemergence, 125 g ai/ha, 0 to 100 scale (0 no effect, 100 complete control)
Method in brief: as §1

[9] = tested on: blackgrass (Alopecurus myosuroides); experiment: Test A postemergence, visual plant response rating; details: for Blackgrass plant response rating (0 to 100 scale): 500 g ai/ha, postemergence, 0 is no effect, 100 is complete control; for Blackgrass plant response rating: Postemergence, 125 g ai/ha, 0 to 100 scale (0 no effect, 100 complete control)
Method in brief: as §1

corn (Zea mays) = experiment: Test A postemergence, visual plant response rating; details: for Corn plant response rating (0 to 100 scale): 500 g ai/ha, postemergence, 0 is no effect, 100 is complete control; for Corn plant response rating: Postemergence, 125 g ai/ha, 0 to 100 scale (0 no effect, 100 complete control)
Method in brief: as §1

[10] = tested on: foxtail, giant (giant foxtail, Setaria faberii); experiment: Test A postemergence, visual plant response rating; details: for Foxtail, Giant plant response rating (0 to 100 scale): 500 g ai/ha, postemergence, 0 is no effect, 100 is complete control; for Foxtail, Giant plant response rating: Postemergence, 125 g ai/ha, 0 to 100 scale (0 no effect, 100 complete control)
Method in brief: as §1

[11] = tested on: galium (catchweed bedstraw, Galium aparine); experiment: Test A postemergence, visual plant response rating; details: for Galium plant response rating (0 to 100 scale): 500 g ai/ha, postemergence, 0 is no effect, 100 is complete control; for Galium plant response rating: Postemergence, 125 g ai/ha, 0 to 100 scale (0 no effect, 100 complete control)
Method in brief: as §1

kochia (Kochia scoparia) [12] = experiment: Test A postemergence, visual plant response rating; details: for Kochia plant response rating (0 to 100 scale): 500 g ai/ha, postemergence, 0 is no effect, 100 is complete control; for Kochia plant response rating: Postemergence, 125 g ai/ha, 0 to 100 scale (0 no effect, 100 complete control)
Method in brief: as §1

[13] = tested on: pigweed (Amaranthus retroflexus); experiment: Test A postemergence, visual plant response rating; details: for Pigweed plant response rating (0 to 100 scale): 500 g ai/ha, postemergence, 0 is no effect, 100 is complete control; for Pigweed plant response rating: Postemergence, 125 g ai/ha, 0 to 100 scale (0 no effect, 100 complete control)
Method in brief: as §1

[14] = tested on: ragweed (common ragweed, Ambrosia elatior); experiment: Test A postemergence, visual plant response rating; details: for Ragweed plant response rating (0 to 100 scale): 500 g ai/ha, postemergence, 0 is no effect, 100 is complete control; for Ragweed plant response rating: Postemergence, 125 g ai/ha, 0 to 100 scale (0 no effect, 100 complete control)
Method in brief: as §1

[15] = tested on: wheat (Triticum aestivum); experiment: Test A postemergence, visual plant response rating; details: for Wheat plant response rating (0 to 100 scale): 500 g ai/ha, postemergence, 0 is no effect, 100 is complete control; for Wheat plant response rating: Postemergence, 125 g ai/ha, 0 to 100 scale (0 no effect, 100 complete control)
Method in brief: as §1

[16] = tested on: barnyardgrass (Echinochloa crus-galli); experiment: Test B flooded paddy test, visual plant response rating; details: 250 g ai/ha, Flood, applied to paddy water, 2-leaf stage, evaluated after 13 to 15 days
Method in brief: (§2)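 Seedlings at 2 leaves; compound into paddy water (3 cm flood, maintained); 13–15 d greenhouse; visual score relative to controls.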

[17] = tested on: ducksalad (Heteranhera limosa); experiment: as above; details: 250 g ai/ha, Flood, applied to paddy water, 2-leaf stage, evaluated after 13 to 15 days
Method in brief: as §2

rice (Oryza sativa) = experiment: as above; details: 250 g ai/ha, Flood, applied to paddy water, 2-leaf stage, evaluated after 13 to 15 days
Method in brief: as §2

[18] = tested on: sedge, umbrella (small-flower umbrella sedge, Cyperus difformis); experiment: as above; details: 250 g ai/ha, Flood, applied to paddy water, 2-leaf stage, evaluated after 13 to 15 days
Method in brief: as §2

Structure (SMILES)	Ryegrass, Italian plant response rating [1]	Ryegrass, Italian plant response rating (0 to 100 scale) [1]	Barnyardgrass plant response rating [2]	Barnyardgrass plant response rating (0 to 100 scale) [2]	Foxtail, Giant plant response rating [3]	Foxtail, Giant plant response rating (0 to 100 scale) [3]	Kochia plant response rating (kochia (Kochia scoparia) [4])	Kochia plant response rating (0 to 100 scale) (kochia (Kochia scoparia) [4])	Pigweed plant response rating [5]	Pigweed plant response rating (0 to 100 scale) [5]	Ragweed plant response rating [6]	Ragweed plant response rating (0 to 100 scale) [6]	Ryegrass, Italian plant response rating (0 to 100 scale) [7]	Ryegrass, Italian plant response rating [7]	Barnyardgrass plant response rating (0 to 100 scale) [8]	Barnyardgrass plant response rating [8]	Blackgrass plant response rating (0 to 100 scale) [9]	Blackgrass plant response rating [9]	Corn plant response rating (0 to 100 scale) (corn (Zea mays))	Corn plant response rating (corn (Zea mays))	other results
CON=C(c1c(OC(C)=O)c(C)nn(C)c1=O)c1cccc2ccccc12 [Compound 48]	40	70	20	70	90	90	40	100	30	100	100	100	80	70	30	20	90	70	80	10	Foxtail, Giant plant response rating (0 to 100 scale) [10]: 80; Foxtail, Giant plant response rating [10]: 30; Galium plant response rating (0 to 100 scale) [11]: 90; Galium plant response rating [11]: 80; Kochia plant response rating (0 to 100 scale) (kochia (Kochia scoparia) [12]): 80; Kochia plant response rating (kochia (Kochia scoparia) [12]): 70; Pigweed plant response rating (0 to 100 scale) [13]: 90; Pigweed plant response rating [13]: 80; Ragweed plant response rating (0 to 100 scale) [14]: 90; Ragweed plant response rating [14]: 80; Wheat plant response rating (0 to 100 scale) [15]: 10; Wheat plant response rating [15]: 0; Plant response rating, Barnyardgrass (0 to 100 scale, 0 is no effect, 100 is complete control) [16]: 0; Plant response rating, Ducksalad (0 to 100 scale, 0 is no effect, 100 is complete control) [17]: 0; Plant response rating, Rice (0 to 100 scale, 0 is no effect, 100 is complete control) (rice (Oryza sativa)): 0; Plant response rating, Sedge, Umbrella (0 to 100 scale, 0 is no effect, 100 is complete control) [18]: 0
CCC(=O)Oc1c(C)nn(C)c(=O)c1C(=NOC)c1cccc2ccccc12 [Compound 49]	40	70	30	90	50	80	50	70	90	100	100	100	80	40	50	20	90	70	50	0	Foxtail, Giant plant response rating (0 to 100 scale) [10]: 80; Foxtail, Giant plant response rating [10]: 40; Galium plant response rating (0 to 100 scale) [11]: 90; Galium plant response rating [11]: 80; Kochia plant response rating (0 to 100 scale) (kochia (Kochia scoparia) [12]): 90; Kochia plant response rating (kochia (Kochia scoparia) [12]): 70; Pigweed plant response rating (0 to 100 scale) [13]: 90; Pigweed plant response rating [13]: 80; Ragweed plant response rating (0 to 100 scale) [14]: 90; Ragweed plant response rating [14]: 80; Wheat plant response rating (0 to 100 scale) [15]: 10; Wheat plant response rating [15]: 0; Plant response rating, Barnyardgrass (0 to 100 scale, 0 is no effect, 100 is complete control) [16]: 0; Plant response rating, Ducksalad (0 to 100 scale, 0 is no effect, 100 is complete control) [17]: 0; Plant response rating, Rice (0 to 100 scale, 0 is no effect, 100 is complete control) (rice (Oryza sativa)): 0; Plant response rating, Sedge, Umbrella (0 to 100 scale, 0 is no effect, 100 is complete control) [18]: 0
CO/N=C(\c1cccc(C)c1F)c1c(O)c(C)nn(C)c1=O [Compound 50]	30	30	10	60	0	40	10	70	30	90	50	90	80	20	40	10	30	0	0	0	Foxtail, Giant plant response rating (0 to 100 scale) [10]: 70; Foxtail, Giant plant response rating [10]: 20; Galium plant response rating (0 to 100 scale) [11]: 70; Galium plant response rating [11]: 70; Kochia plant response rating (0 to 100 scale) (kochia (Kochia scoparia) [12]): 80; Kochia plant response rating (kochia (Kochia scoparia) [12]): 60; Pigweed plant response rating (0 to 100 scale) [13]: 90; Pigweed plant response rating [13]: 90; Ragweed plant response rating (0 to 100 scale) [14]: 80; Ragweed plant response rating [14]: 70; Wheat plant response rating (0 to 100 scale) [15]: 0; Wheat plant response rating [15]: 0; Plant response rating, Barnyardgrass (0 to 100 scale, 0 is no effect, 100 is complete control) [16]: 0; Plant response rating, Ducksalad (0 to 100 scale, 0 is no effect, 100 is complete control) [17]: 0; Plant response rating, Rice (0 to 100 scale, 0 is no effect, 100 is complete control) (rice (Oryza sativa)): 0; Plant response rating, Sedge, Umbrella (0 to 100 scale, 0 is no effect, 100 is complete control) [18]: 0
